Changes are numbered by the printed parent chain.

Test [1] concerns T1, Casein kinase I isoform epsilon (Homo sapiens), P49674 [K69R].
T1 sequence (whole entry): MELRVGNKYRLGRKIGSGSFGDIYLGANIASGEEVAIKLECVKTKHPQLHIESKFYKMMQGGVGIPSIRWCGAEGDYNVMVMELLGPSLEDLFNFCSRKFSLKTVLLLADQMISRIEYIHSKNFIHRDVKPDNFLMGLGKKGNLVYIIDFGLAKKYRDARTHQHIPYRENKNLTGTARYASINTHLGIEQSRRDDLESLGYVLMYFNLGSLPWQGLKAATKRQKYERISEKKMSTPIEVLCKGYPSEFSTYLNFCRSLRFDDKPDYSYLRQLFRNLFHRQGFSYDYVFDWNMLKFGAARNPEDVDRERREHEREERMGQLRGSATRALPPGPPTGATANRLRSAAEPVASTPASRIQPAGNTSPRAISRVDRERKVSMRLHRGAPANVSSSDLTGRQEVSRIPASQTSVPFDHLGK
Kind of test: Binding affinity to human CK1epsilon K69R mutant assessed as change in melting temperature by differential scanning fluorimetry.

Test [2] deals with T2, Casein kinase I isoform epsilon (Homo sapiens), P49674 [S67T].
T2 sequence (whole entry): T1 sequence (whole entry) with S67T, R69K
Description: Binding affinity to human CK1epsilon S67T mutant assessed as change in melting temperature by differential scanning fluorimetry.

Test [3] deals with T3, Casein kinase I isoform epsilon (Homo sapiens), P49674 [F55I].
T3 sequence (whole entry): T1 sequence (whole entry) with F55I, R69K
Description: Binding affinity to human CK1epsilon F55I mutant assessed as change in melting temperature by differential scanning fluorimetry.

Test [4] concerns the target Casein kinase I isoform epsilon (Homo sapiens) (UniProt P49674). Description: Binding affinity to wild type human CK1epsilon (1-294 amino acids) assessed as change in melting temperature by differential scanning fluorimetry.
For test [5], the system named is T4, Casein kinase I isoform delta (Homo sapiens), P48730 [R69K].
T4 sequence (whole entry): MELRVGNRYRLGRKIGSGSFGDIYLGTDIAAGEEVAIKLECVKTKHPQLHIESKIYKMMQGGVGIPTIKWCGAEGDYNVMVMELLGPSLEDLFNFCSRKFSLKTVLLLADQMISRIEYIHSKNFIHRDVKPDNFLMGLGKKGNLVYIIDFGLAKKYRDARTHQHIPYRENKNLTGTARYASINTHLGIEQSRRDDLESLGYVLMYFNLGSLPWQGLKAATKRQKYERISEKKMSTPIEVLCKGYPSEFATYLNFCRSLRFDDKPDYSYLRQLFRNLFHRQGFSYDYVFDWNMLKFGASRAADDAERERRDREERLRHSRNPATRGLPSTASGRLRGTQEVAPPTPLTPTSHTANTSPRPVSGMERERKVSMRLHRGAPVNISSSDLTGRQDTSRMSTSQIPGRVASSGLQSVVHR
Description: Binding affinity to human CK1delta R69K mutant assessed as change in melting temperature by differential scanning fluorimetry.

The subject of test [6] is T5, Casein kinase I isoform delta (Homo sapiens), P48730 [T67S].
T5 sequence (whole entry): T4 sequence (whole entry) with T67S, K69R
Description: Binding affinity to human CK1delta T67S mutant assessed as change in melting temperature by differential scanning fluorimetry.

The target in test [7] is Casein kinase I isoform delta (Homo sapiens) (UniProt P48730). Description: Binding affinity to wild type human CK1delta (1-294 amino acids) assessed as change in melting temperature by differential scanning fluorimetry.
The subject of test [8] is T6, Casein kinase I isoform delta (Homo sapiens), P48730 [I55F].
T6 sequence (whole entry): T4 sequence (whole entry) with I55F, K69R
Kind of test: Binding affinity to human CK1delta I55F mutant assessed as change in melting temperature by differential scanning fluorimetry.

Casein kinase I isoform epsilon (Homo sapiens), sequence (P49674 whole entry, looked up, the tested form may be a part, canonical isoform): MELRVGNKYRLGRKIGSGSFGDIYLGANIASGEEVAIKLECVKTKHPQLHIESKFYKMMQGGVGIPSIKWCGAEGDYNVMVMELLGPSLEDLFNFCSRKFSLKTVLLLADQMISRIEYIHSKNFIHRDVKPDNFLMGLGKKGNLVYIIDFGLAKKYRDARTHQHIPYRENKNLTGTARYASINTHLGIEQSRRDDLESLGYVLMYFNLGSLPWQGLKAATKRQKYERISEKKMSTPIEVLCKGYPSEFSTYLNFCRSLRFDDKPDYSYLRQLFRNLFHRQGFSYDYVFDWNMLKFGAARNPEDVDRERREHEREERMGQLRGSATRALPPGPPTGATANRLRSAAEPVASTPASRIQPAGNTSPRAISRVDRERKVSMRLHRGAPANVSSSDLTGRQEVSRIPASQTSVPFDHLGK
Casein kinase I isoform delta (Homo sapiens), sequence (P48730 whole entry, looked up, the tested form may be a part, canonical isoform): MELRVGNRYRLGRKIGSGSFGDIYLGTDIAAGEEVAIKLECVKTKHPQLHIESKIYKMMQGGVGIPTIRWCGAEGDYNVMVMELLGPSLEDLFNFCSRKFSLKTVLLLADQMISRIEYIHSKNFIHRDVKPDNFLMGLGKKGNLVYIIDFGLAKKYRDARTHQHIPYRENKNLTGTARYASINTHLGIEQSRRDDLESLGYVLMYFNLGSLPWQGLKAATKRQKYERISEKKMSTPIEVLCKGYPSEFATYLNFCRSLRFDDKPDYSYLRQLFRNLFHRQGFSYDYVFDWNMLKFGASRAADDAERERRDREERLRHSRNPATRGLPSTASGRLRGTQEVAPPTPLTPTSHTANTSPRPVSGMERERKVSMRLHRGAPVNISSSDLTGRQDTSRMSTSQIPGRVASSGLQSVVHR

In the case of `Nc1nccc(-c2c(-c3ccc(F)cc3)ncn2C2CCCCC2)n1`, the ΔTm in test [1] was 8.6 °C; in test [2] it was 8.6 °C; in test [3] it was 10.4 °C; in test [4] it was 8.6 °C; in test [5], 9.6 °C; in test [6] it was 9.6 °C. Besides, the ΔTm in test [7] and in test [8] was 9.6 °C in each case.

For `Nc1ncnc2c1c(COc1cccc(Cl)c1)nn2C1CCOCC1`, the ΔTm in test [1] stood at 11.5 °C; in test [2], 11.5 °C; in test [3], 6.4 °C; in test [4], 11.5 °C; in test [5], 4.8 °C; in test [6], 4.8 °C. For the same compound, the ΔTm amounted to 4.8 °C in test [7] and 13.2 °C in test [8].

For the origin of these results see ChEMBL document CHEMBL2176885, “Structural basis for the potent and selective inhibition of casein kinase 1 epsilon” (J Med Chem, 2012).
